“And” between values parts separate entries of the source, which are not always exact repeats. Equal entries are not always repeated.
Experiments:
Parameters in all cases: scale not given: the % may be the effect or the level left
[1] = test system: Tyrosine-protein kinase ABL1 (Homo sapiens), P00519 [UNDEFINED MUTATION]; assay: Inhibition of non-phosphorylated human ABL1 […] mutant assessed as percent of control at 2000 nM by KINOMEscan assay relative to control
[2] = test system: Tyrosine-protein kinase ABL1 (Homo sapiens), P00519 [UNDEFINED MUTATION]; assay: Inhibition of phosphorylated human ABL1 […] mutant assessed as percent of control at 2000 nM by KINOMEscan assay relative to control
[3] = molecular target: Activin receptor type-1B (Homo sapiens) (UniProt P36896); assay: Inhibition of human ACVR1B assessed as percent of control at 2000 nM by KINOMEscan assay relative to control
[4] = molecular target: Serine/threonine-protein kinase BRSK2 (Homo sapiens) (UniProt Q8IWQ3); assay: Inhibition of human BRSK2 assessed as percent of control at 2000 nM by KINOMEscan assay relative to control
Chain of Serine/threonine-protein kinase BRSK2 (Homo sapiens) (Q8IWQ3 whole entry): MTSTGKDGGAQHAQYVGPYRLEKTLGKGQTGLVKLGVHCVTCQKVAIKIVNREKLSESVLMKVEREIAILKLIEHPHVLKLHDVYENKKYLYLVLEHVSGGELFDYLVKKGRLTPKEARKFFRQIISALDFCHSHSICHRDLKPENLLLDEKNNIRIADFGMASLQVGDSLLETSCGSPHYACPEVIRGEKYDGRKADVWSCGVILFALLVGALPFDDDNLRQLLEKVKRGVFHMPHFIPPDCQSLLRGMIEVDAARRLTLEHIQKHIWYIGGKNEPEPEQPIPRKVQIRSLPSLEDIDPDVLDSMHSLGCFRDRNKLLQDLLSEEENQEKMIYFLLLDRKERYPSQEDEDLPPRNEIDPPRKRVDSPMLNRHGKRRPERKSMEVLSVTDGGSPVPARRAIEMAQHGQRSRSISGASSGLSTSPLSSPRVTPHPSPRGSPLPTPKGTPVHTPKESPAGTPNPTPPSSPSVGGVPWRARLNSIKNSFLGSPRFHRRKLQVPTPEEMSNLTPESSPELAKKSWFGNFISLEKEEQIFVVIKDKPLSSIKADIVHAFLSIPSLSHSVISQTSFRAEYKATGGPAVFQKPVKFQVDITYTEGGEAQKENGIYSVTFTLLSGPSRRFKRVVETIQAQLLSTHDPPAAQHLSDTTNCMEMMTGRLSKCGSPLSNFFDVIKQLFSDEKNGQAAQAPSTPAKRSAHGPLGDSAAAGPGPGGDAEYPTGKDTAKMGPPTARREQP

[5] = molecular target: Calcium/calmodulin-dependent protein kinase type II subunit delta (Homo sapiens) (UniProt Q13557); assay: Inhibition of human CAMK2D assessed as percent of control at 2000 nM by KINOMEscan assay relative to control
[6] = molecular target: Calcium/calmodulin-dependent protein kinase type II subunit gamma (Homo sapiens) (UniProt Q13555); assay: Inhibition of human CAMK2G assessed as percent of control at 2000 nM by KINOMEscan assay relative to control
[7] = molecular target: Calcium/calmodulin-dependent protein kinase kinase 2 (Homo sapiens) (UniProt Q96RR4); assay: Inhibition of human CAMKK2 assessed as percent of control at 2000 nM by KINOMEscan assay relative to control
[8] = molecular target: Cyclin-dependent kinase 11A (Homo sapiens) (UniProt Q9UQ88); assay: Inhibition of human CDC2L2 assessed as percent of control at 2000 nM by KINOMEscan assay relative to control
[9] = molecular target: Dual specificity protein kinase CLK4 (Homo sapiens) (UniProt Q9HAZ1); assay: Inhibition of human CLK4 assessed as percent of control at 2000 nM by KINOMEscan assay relative to control
[10] = molecular target: Ephrin type-A receptor 5 (Homo sapiens) (UniProt P54756); assay: Inhibition of human EPHA5 assessed as percent of control at 2000 nM by KINOMEscan assay relative to control
Chain of Ephrin type-A receptor 5 (Homo sapiens) (P54756 whole entry): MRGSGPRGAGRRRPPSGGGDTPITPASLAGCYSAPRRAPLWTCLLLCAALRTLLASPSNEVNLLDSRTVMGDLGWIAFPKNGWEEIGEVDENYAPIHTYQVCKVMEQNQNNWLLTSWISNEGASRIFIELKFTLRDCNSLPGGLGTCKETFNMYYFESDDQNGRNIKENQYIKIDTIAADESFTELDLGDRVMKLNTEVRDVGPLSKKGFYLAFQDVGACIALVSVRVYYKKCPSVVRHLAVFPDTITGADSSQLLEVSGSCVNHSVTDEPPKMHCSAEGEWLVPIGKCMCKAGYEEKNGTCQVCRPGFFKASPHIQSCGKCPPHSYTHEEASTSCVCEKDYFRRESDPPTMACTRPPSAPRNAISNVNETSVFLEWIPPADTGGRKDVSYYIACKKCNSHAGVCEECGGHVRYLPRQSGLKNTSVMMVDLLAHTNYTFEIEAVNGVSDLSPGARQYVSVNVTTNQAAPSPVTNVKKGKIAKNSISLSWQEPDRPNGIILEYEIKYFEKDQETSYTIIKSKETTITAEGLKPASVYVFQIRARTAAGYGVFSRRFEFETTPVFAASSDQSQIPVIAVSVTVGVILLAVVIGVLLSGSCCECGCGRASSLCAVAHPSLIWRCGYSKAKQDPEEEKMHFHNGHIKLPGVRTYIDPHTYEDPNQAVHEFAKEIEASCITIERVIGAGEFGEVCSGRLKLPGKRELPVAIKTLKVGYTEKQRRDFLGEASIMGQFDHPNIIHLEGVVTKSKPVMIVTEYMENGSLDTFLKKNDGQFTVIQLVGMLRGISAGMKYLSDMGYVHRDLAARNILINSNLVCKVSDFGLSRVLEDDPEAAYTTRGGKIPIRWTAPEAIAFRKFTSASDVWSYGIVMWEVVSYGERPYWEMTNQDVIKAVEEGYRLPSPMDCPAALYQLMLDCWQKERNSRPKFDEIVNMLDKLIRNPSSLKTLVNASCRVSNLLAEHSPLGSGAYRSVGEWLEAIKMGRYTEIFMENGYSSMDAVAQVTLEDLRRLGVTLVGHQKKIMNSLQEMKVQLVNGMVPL

[11] = molecular target: Receptor tyrosine-protein kinase erbB-4 (Homo sapiens) (UniProt Q15303); assay: Inhibition of human ERBB4 assessed as percent of control at 2000 nM by KINOMEscan assay relative to control
[12] = molecular target: Mitogen-activated protein kinase 15 (Homo sapiens) (UniProt Q8TD08); assay: Inhibition of human ERK8 assessed as percent of control at 2000 nM by KINOMEscan assay relative to control
Chain of Mitogen-activated protein kinase 15 (Homo sapiens) (Q8TD08 whole entry): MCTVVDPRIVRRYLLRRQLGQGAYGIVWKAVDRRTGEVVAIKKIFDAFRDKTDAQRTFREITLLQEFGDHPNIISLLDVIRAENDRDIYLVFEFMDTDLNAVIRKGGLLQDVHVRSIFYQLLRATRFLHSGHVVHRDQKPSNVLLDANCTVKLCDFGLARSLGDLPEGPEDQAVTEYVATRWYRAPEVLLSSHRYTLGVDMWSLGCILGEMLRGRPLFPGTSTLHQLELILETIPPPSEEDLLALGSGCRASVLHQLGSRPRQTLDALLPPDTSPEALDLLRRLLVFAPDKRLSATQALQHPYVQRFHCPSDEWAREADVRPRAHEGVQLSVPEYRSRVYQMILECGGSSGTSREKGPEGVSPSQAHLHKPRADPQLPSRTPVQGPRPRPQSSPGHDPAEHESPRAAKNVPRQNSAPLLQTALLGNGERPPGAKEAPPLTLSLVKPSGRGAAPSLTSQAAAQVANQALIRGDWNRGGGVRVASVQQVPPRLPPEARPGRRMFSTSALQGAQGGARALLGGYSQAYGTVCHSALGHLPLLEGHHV

[13] = molecular target: Receptor-type tyrosine-protein kinase FLT3 (Homo sapiens) (UniProt P36888); assay: Inhibition of human autoinhibited FLT3 assessed as percent of control at 2000 nM by KINOMEscan assay relative to control
Chain of Receptor-type tyrosine-protein kinase FLT3 (Homo sapiens) (P36888 whole entry): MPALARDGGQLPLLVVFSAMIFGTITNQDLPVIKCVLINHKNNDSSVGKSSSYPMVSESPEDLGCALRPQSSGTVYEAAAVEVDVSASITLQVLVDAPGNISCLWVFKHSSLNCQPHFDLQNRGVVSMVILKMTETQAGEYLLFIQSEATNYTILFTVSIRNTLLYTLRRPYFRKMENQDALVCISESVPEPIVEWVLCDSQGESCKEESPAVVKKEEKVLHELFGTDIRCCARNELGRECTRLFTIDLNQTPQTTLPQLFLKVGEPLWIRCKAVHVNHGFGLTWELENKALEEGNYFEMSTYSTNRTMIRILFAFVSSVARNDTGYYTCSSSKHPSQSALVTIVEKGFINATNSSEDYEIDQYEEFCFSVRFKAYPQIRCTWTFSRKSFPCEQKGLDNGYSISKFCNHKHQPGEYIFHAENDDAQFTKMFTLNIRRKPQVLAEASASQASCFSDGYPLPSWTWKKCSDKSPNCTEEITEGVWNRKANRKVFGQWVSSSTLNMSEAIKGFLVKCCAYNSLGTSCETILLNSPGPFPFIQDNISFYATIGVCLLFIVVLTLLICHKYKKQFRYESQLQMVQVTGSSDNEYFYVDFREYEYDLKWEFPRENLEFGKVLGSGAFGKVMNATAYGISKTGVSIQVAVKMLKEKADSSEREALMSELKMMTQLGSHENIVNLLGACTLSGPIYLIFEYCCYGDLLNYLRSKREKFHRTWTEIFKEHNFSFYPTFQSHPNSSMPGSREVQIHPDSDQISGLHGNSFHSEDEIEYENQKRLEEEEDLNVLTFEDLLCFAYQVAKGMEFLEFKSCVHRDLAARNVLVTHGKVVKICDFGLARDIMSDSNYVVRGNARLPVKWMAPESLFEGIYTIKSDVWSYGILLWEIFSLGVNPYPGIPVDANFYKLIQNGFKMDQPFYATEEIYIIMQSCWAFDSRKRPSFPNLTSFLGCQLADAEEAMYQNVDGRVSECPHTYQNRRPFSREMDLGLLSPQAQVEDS

[14] = molecular target: Insulin receptor (Homo sapiens) (UniProt P06213); assay: Inhibition of human INSR assessed as percent of control at 2000 nM by KINOMEscan assay relative to control
[15] = test system: Mast/stem cell growth factor receptor Kit (Homo sapiens), P10721 [D816V]; assay: Inhibition of human KIT D816V mutant assessed as percent of control at 2000 nM by KINOMEscan assay relative to control
[16] = test system: Leucine-rich repeat serine/threonine-protein kinase 2 (Homo sapiens), Q5S007 [G2019S]; assay: Inhibition of human LRRK2 G2019S mutant assessed as percent of control at 2000 nM by KINOMEscan assay relative to control
[17] = molecular target: Mitogen-activated protein kinase kinase kinase 2 (Homo sapiens) (UniProt Q9Y2U5); assay: Inhibition of human MAP3K2 assessed as percent of control at 2000 nM by KINOMEscan assay relative to control
[18] = molecular target: Serine/threonine-protein kinase MRCK beta (Homo sapiens) (UniProt Q9Y5S2); assay: Inhibition of human MRCKB assessed as percent of control at 2000 nM by KINOMEscan assay relative to control
[19] = molecular target: Myosin-IIIb (Homo sapiens) (UniProt Q8WXR4); assay: Inhibition of human MYO3B assessed as percent of control at 2000 nM by KINOMEscan assay relative to control
[20] = molecular target: Serine/threonine-protein kinase 38 (Homo sapiens) (UniProt Q15208); assay: Inhibition of human NDR1 assessed as percent of control at 2000 nM by KINOMEscan assay relative to control
[21] = molecular target: Serine/threonine-protein kinase Nek1 (Homo sapiens) (UniProt Q96PY6); assay: Inhibition of human NEK1 assessed as percent of control at 2000 nM by KINOMEscan assay relative to control
[22] = molecular target: Serine/threonine-protein kinase Nek11 (Homo sapiens) (UniProt Q8NG66); assay: Inhibition of human NEK11 assessed as percent of control at 2000 nM by KINOMEscan assay relative to control
Chain of Serine/threonine-protein kinase Nek11 (Homo sapiens) (Q8NG66 whole entry): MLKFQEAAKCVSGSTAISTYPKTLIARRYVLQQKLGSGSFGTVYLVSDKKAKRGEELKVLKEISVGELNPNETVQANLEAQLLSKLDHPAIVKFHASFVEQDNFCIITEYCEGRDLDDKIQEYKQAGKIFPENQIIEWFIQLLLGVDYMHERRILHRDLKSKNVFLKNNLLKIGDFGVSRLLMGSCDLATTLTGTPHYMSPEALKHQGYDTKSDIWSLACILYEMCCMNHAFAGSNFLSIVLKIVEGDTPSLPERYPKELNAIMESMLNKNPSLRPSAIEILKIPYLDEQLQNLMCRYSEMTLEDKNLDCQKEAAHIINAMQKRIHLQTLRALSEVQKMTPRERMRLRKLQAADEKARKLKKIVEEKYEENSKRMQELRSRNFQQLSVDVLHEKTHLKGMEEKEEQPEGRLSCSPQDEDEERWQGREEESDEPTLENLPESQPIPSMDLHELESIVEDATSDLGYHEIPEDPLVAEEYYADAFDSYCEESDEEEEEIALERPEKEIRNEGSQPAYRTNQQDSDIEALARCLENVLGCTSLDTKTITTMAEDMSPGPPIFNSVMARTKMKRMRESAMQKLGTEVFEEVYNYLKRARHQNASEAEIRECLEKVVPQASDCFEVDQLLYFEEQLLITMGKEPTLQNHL

[23] = molecular target: cAMP-dependent protein kinase catalytic subunit alpha (Homo sapiens) (UniProt P17612); assay: Inhibition of human PKAC-alpha assessed as percent of control at 2000 nM by KINOMEscan assay relative to control
[24] = molecular target: Serine/threonine-protein kinase PLK3 (Homo sapiens) (UniProt Q9H4B4); assay: Inhibition of human PLK3 assessed as percent of control at 2000 nM by KINOMEscan assay relative to control
[25] = molecular target: Protein kinase C eta type (Homo sapiens) (UniProt P24723); assay: Inhibition of human PRKCH assessed as percent of control at 2000 nM by KINOMEscan assay relative to control
[26] = molecular target: Serine/threonine-protein kinase SIK3 (Homo sapiens) (UniProt Q9Y2K2); assay: Inhibition of human QSK assessed as percent of control at 2000 nM by KINOMEscan assay relative to control
[27] = molecular target: Rho-associated protein kinase 2 (Homo sapiens) (UniProt O75116); assay: Inhibition of human ROCK2 assessed as percent of control at 2000 nM by KINOMEscan assay relative to control
[28] = molecular target: Ribosomal protein S6 kinase alpha-1 (Homo sapiens) (UniProt Q15418); assay: Inhibition of human C-terminal RSK1 kinase domain 2 assessed as percent of control at 2000 nM by KINOMEscan assay relative to control
[29] = molecular target: SNF-related serine/threonine-protein kinase (Homo sapiens) (UniProt Q9NRH2); assay: Inhibition of human SNRK assessed as percent of control at 2000 nM by KINOMEscan assay relative to control
[30] = molecular target: Tyrosine-protein kinase Yes (Homo sapiens) (UniProt P07947); assay: Inhibition of human YES assessed as percent of control at 2000 nM by KINOMEscan assay relative to control
[31] = molecular target: Tyrosine-protein kinase ZAP-70 (Homo sapiens) (UniProt P43403); assay: Inhibition of human ZAP70 assessed as percent of control at 2000 nM by KINOMEscan assay relative to control

Chain of Tyrosine-protein kinase ABL1 (Homo sapiens), P00519 [UNDEFINED MUTATION] (P00519 whole entry, looked up, change not shown): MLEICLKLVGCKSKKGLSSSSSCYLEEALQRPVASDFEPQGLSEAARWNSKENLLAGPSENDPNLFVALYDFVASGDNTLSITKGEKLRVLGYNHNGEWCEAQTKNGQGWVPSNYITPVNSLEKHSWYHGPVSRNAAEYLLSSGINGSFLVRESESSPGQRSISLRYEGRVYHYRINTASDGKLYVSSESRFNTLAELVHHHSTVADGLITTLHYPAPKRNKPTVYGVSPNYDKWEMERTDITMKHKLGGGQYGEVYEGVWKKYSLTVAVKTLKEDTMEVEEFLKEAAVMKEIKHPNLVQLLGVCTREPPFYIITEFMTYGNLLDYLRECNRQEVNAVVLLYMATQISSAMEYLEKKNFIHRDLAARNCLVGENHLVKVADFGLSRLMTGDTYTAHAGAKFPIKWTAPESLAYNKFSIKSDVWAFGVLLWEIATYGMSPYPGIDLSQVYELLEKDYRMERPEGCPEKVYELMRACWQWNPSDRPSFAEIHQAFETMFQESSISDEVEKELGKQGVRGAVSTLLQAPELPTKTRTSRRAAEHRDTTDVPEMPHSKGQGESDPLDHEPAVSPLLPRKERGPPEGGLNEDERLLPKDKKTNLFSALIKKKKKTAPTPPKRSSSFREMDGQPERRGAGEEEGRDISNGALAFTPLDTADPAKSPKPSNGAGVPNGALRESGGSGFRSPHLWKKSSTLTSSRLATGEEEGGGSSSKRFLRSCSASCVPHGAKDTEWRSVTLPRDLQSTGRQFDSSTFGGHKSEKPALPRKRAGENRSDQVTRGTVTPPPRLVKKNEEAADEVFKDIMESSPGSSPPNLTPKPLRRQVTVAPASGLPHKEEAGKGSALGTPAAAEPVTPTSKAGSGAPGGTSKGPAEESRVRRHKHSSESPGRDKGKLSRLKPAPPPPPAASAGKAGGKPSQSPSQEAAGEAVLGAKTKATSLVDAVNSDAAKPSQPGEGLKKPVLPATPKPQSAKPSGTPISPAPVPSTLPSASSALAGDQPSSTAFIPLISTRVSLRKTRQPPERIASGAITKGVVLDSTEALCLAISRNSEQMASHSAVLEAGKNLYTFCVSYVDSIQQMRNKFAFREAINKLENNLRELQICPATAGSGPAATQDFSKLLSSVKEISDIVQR

With `CN(C)C(=O)c1ccc(N2CCCN(c3ccnc4sc(C(N)=O)c(N)c34)CC2)cc1` the Activity [1] was 100% and 76%, the Activity [2] was 94% and 77% and the Activity [3] was 100% and 99%. The Activity [4] was 100%, the Activity [5] was 99% and 92% and the Activity [6] was 100%. The Activity [7] was 100% and 87%, the Activity [8] was 100% and the Activity [9] was 59% and 66%. For the same compound, the Activity [10] was 89% and 96%, the Activity [11] was 85% and 100% and the Activity [12] was 98% and 99%. For the same compound, the Activity [13] was 72% and 77%, the Activity [14] was 97% and 80% and the Activity [15] was 93% and 79%. For the same compound, the Activity [16] was 90% and 76%, the Activity [17] was 98% and 86% and the Activity [18] was 96% and 100%. The Activity [19] was 87% and 100%, the Activity [20] was 100% and 80% and the Activity [21] was 80% and 96%. The Activity [22] was 90% and 86%, the Activity [23] was 95% and 100% and the Activity [24] was 86% and 90%. The Activity [25] was 80% and 96%, the Activity [26] was 89% and 97% and the Activity [27] was 100% and 80%. For the same compound, the Activity [28] was 100% and 86%, the Activity [29] was 100% and 75% and the Activity [30] was 99% and 100%. For the same compound, the Activity [31] was 95% and 87%.

From ChEMBL document CHEMBL4804286, “3-amino-4-(4-(4 (dimethylcarbamoyl) phenyl)-1,4-diazepan-1-yl) thieno [2,3-b] pyridine-2-carboxamide for use in cancer therapy and formulations comprising the same” (2020)
